Data as given in patent US11279931B2, “Therapeutic agent for a lung disease and/or method for screening for the same” (Chugai Seiyaku Kabushiki Kaisha, priority 2015, dated 2022).

Tests used:
Type in all cases: cell-based, C57BL/6 mice
IL-6 mRNA = IL-6 mRNA expression by qPCR in LPS-stimulated peritoneal macrophages; settings: test agent 20 μM, LPS (1 g/mL), vs absence of CPZ (FIG. 10)
Protocol: (§1) Peritoneal macrophages from C57BL/6 mice (aged 6 to 8 weeks) were stimulated with LPS ([…]) in the presence or absence of a test agent (20 μM). The relative expression levels of mRNAs of Arid5A, IL-6, and TNF-α were determined in the stimulated peritoneal macrophages by quantitative PCR (qPCR). The expression level of Arid5A mRNA was determined 2 hours after LPS stimulation. The expression levels of IL-6 mRNA and TNF-α mRNA were determined 2 hours, 6 hours, 12 hours, and 24 hours after LPS stimulation. FIGS. 9 to 11 show the results when chlorpromazine (CPZ) was used as a test agent.

TNF-α mRNA = TNF-α mRNA expression by qPCR in LPS-stimulated peritoneal macrophages; settings: test agent 20 μM, LPS (1 g/mL), determined 2, 6, 12 and 24 hours after LPS stimulation (FIG. 11)
Protocol: as §1

Arid5A mRNA = Arid5A mRNA expression by qPCR in LPS-stimulated peritoneal macrophages; settings: test agent 20 μM, LPS (1 g/mL), 2 hours after LPS stimulation, vs absence of CPZ (FIG. 9)
Protocol: as §1

SMILES: CN(C)CCCN1c2ccccc2Sc2ccc(Cl)cc21 [CPZ, chlorpromazine]
- expression of IL-6 mRNA (IL-6 mRNA; 2 hours after LPS stimulation): markedly suppressed
- expression of IL-6 mRNA (IL-6 mRNA; 6 hours after LPS stimulation): markedly suppressed
- expression of TNF-α mRNA (TNF-α mRNA): no effect
- expression of Arid5A mRNA (Arid5A mRNA): markedly suppressed
